13 compounds from patent publication US12691070B2, “Cationic lipids and preparation method thereof” (RiboX Therapeutics HK Limited, priority 2023, dated 2026) can be followed below.

A short description of data set [1]: LNP size and polydispersity index (PDI) by dynamic light scattering. The conditions noted are these: LNP with cirRNA (SEQ ID NO: 1); for Size: in nm (unit assumed). In kind it is physicochemical. As for the experimental part: (§1) Ionizable lipid, DSPC, Cholesterol and DMG-PEG 2000 were mixed at a molar ratio of 50:10:38.5:1.5 in absolute ethanol. Circular RNA and linear mRNA payloads were suspended in 25 mM Acetate Buffer (pH 4.5). To form LNPs, three volumes of luciferase encoding RNA, in the form of cirRNA (SEQ ID NO:1) and mRNA (SEQ ID NO:2) respectively, were mixed with one volume of lipids in ethanol solution by microfluidic mixing with the Nanoassemblr Ignite (Precision Nanosystems) at a flow rate of 12 ml/min. The molar ratio of ionizable lipid to ribonucleotide was 15 or 6. The final lipid concentration in solution ranged from 1.5 mM to 6 mM. After encapsulation, the particles were dialyzed twice against PBS.
(§2) The LNP size and polydispersity index (PDI), determined by dynamic light scattering (DLS), and zeta potential were measured by a Zetasizer machine (Malvern). RNA concentration and encapsulation efficacy were analyzed by the Quant-IT Ribogreen kit by calculating the percentage encapsulation at 100%−(RNA-LNPs/RNA-LNPs with Triton X-100).

The nature of data set [2]: LNP zeta potential (Zetasizer). The conditions noted are these: LNP with cirRNA (SEQ ID NO: 1). In kind it is physicochemical. As for the experimental part: as §1, §2
Data set [3] is described as follows: RNA encapsulation efficacy by Quant-IT Ribogreen kit. In kind it is physicochemical. The conditions noted are these: LNP with cirRNA (SEQ ID NO: 1). The method, then: as §1, §2
Data set [4] deals with Hep G2 cells. The data set is described as follows: In vitro expression of firefly-luciferase, Hep G2. It is filed as cell-based. The conditions noted are these: cirRNA (SEQ ID NO: 1) LNPs; firefly-luciferase luminescence; Hep G2 cells. As for the experimental part: (§3) RAW 264.7 and Hep G2 cells were transfected with 100 ng/mL of RNA-LNPs encoding for firefly-luciferase. At 72 hours post transfection, the cells were washed and lysed. The luciferase expression was determined in the cell lysates with the luciferase assay reagent kit (Promega), according to the kit protocol, luciferase activity was measured by a luminometer.

Data set [5] relates to RAW 264.7 cells. The data set is described as follows: In vitro expression of firefly-luciferase, RAW 264.7. It is filed as cell-based. The conditions noted are these: cirRNA (SEQ ID NO: 1) LNPs; firefly-luciferase luminescence; RAW 264.7 cells. The method, then: as §3
Data set [6] concerns Hep G2 cells. Put plainly: In vitro toxicity (CellTiter-Glo cell viability), Hep G2.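 Further: percent of untreated cells luminescence signal.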 In kind it is cell-based. The conditions noted are these: cirRNA (SEQ ID NO: 1) LNPs; Hep G2 cells. The method, then:
(§4) RAW 264.7 and Hep G2 cells were transfected with 1 μg/mL RNA-LNPs. At 72 hours post transfection, cell viability was determined with the CellTiter-Glo® reagent kit, according to the kit protocol, measured by a luminometer.
(§5) The cell viability was calculated according to the following formula: […]

Data set [7] relates to RAW 264.7 cells. Put plainly: In vitro toxicity (CellTiter-Glo cell viability), RAW 264.7.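 Further: percent of untreated cells luminescence signal.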 In kind it is cell-based. The conditions noted are these: cirRNA (SEQ ID NO: 1) LNPs; RAW 264.7 cells. The method, then: as §4, §5
Background: Cellular ATP, detected with luciferase, serves as a proxy for viable cell number.

The test system of a further data set is BALB/C mice. Put plainly: In vivo expression, whole-body luminescence (IVIS). The conditions noted are these: cirRNA (SEQ ID NO: 1) LNPs, BALB/C mice. The method, then:
6-8 week old, female BALB/C mice were injected with 0.05 mg*kg-1 of RNA-LNPs encoding for firefly-luciferase by intravenous injection. At 6 hours post injection, animals were intraperitoneally injected with 15 mg/ml of Luciferin substrate and whole-body luminescence was determined by a bioluminescent in vivo imaging system (IVIS).

On to `CCCCCCCCC(CCCCCC)C(=O)OCCCCCCCCN(CCCCCCCCOC(=O)C(CCCCCC)CCCCCCCC)CCOC(=O)NCc1ccc(NC(=O)OC(C)(C)C)cc1` (stereo not shown) [Lipid 8, ((2-(((4-((tert-butoxycarbonyl)amino)benzyl)carbamoyl)oxy)ethyl)azanediyl)bis(octane-8,1-diyl) bis(2-hexyldecanoate)], for which, in data set [1], the PDI is given as 0.162 and the Size is given as 80.1. For the same compound, the “Zeta (mV)” value in data set [2] was −20.4 mV. Moreover, the “Encapsulation Efficiency %” value in data set [3] turned out to be 84%. For the same compound, the “In vitro Expression HepG2” value with Hep G2 cells [4] came out at 2.33E+01. Besides, the “In vitro Expression RAW” value in the data set with RAW 264.7 cells [5] amounted to 6.90E+01. The “In vitro Viability HepG2” value with Hep G2 cells [6] turned out to be 110%. In addition, the “In vitro Viability RAW” value in the data set with RAW 264.7 cells [7] came out at 105%. For the same compound, the “In vivo Expression (Whole Body)” value with BALB/C mice is recorded as 9.52E+04.
In data set [1], `CCCCC/C=C\C/C=C\CCCCCCCCN(CCCCCCCC/C=C\C/C=C\CCCCC)CCOC(=O)NCc1ccncc1` [Lipid 35, 2-(di((9Z,12Z)-octadeca-9,12-dien-1-yl)amino)ethyl (pyridin-4-ylmethyl)carbamate] gave a PDI of 0.115 and a Size of 116.3. In addition, in data set [2], the “Zeta (mV)” value was −6.298 mV. Besides, the “Encapsulation Efficiency %” value in data set [3] is recorded as 71%. Further, in the data set on Hep G2 cells [4], the “In vitro Expression HepG2” value was 2.82E+02. In addition, in the data set on RAW 264.7 cells [5], the “In vitro Expression RAW” value is 6.25E+03. Besides, in the data set on Hep G2 cells [6], the “In vitro Viability HepG2” value is on record as 103%. Further, the “In vitro Viability RAW” value with RAW 264.7 cells [7] is recorded as 108%. Besides, the “In vivo Expression (Whole Body)” value in the data set on BALB/C mice is on record as 1.16E+05.
Turning to `CCCCC/C=C\C/C=C\CCCCCCCCN(CCCCCCCC/C=C\C/C=C\CCCCC)CCOC(=O)NCCN1CCOCC1` [Lipid 36, 2-(di((9Z,12Z)-octadeca-9,12-dien-1-yl)amino)ethyl (2-morpholinoethyl)carbamate], in data set [1], the PDI was 0.138 and the Size worked out at 125.4. Further, the “Zeta (mV)” value in data set [2] is −3.556 mV. The “Encapsulation Efficiency %” value in data set [3] came to 96%. In the data set on Hep G2 cells [4], the “In vitro Expression HepG2” value was 9.18E+04. Further, the “In vitro Expression RAW” value with RAW 264.7 cells [5] is recorded as 2.03E+04. Moreover, the “In vitro Viability HepG2” value with Hep G2 cells [6] came out at 82%. In addition, the “In vitro Viability RAW” value in the data set on RAW 264.7 cells [7] is on record as 95%. Moreover, the “In vivo Expression (Whole Body)” value in the data set on BALB/C mice is listed as 1.21E+05.
In data set [1], `CCCCC/C=C\C/C=C\CCCCCCCCN(CCCCCCCC/C=C\C/C=C\CCCCC)CCOC(=O)NCCN1CCN(C)CC1` [Lipid 37, 2-(di((9Z,12Z)-octadeca-9,12-dien-1-yl)amino)ethyl (2-(4-methylpiperazin-1-yl)ethyl)carbamate] came in with a PDI of 0.138 and a Size of 145.8. In addition, the “Zeta (mV)” value in data set [2] was determined as 4.079 mV. Also, in data set [3], the “Encapsulation Efficiency %” value amounted to 95%. Further, the “In vitro Expression HepG2” value with Hep G2 cells [4] came out at 5.96E+05. Besides, the “In vitro Expression RAW” value in the data set with RAW 264.7 cells [5] was found to be 1.98E+04. The “In vitro Viability HepG2” value with Hep G2 cells [6] worked out at 87%. Besides, in the data set on RAW 264.7 cells [7], the “In vitro Viability RAW” value is listed as 92%. The “In vivo Expression (Whole Body)” value in the data set with BALB/C mice turned out to be 1.16E+05.
In data set [1], `CCCCC/C=C\C/C=C\CCCCCCCCN(CCCCCCCC/C=C\C/C=C\CCCCC)CCOC(=O)NCc1ncc[nH]1` [Lipid 39, 2-(di((9Z,12Z)-octadeca-9,12-dien-1-yl)amino)ethyl ((1H-imidazol-2-yl)methyl)carbamate] registered a PDI of 0.07 and a Size of 169.5. For the same compound, the “Zeta (mV)” value in data set [2] is reported as −3.335 mV. Besides, the “Encapsulation Efficiency %” value in data set [3] was 91%. Besides, in the data set with Hep G2 cells [4], the “In vitro Expression HepG2” value came to 8.11E+02. In addition, the “In vitro Expression RAW” value in the data set on RAW 264.7 cells [5] is given as 2.58E+03. In addition, in the data set on Hep G2 cells [6], the “In vitro Viability HepG2” value stood at 90%. Also, the “In vitro Viability RAW” value in the data set on RAW 264.7 cells [7] is 96%. Besides, the “In vivo Expression (Whole Body)” value in the data set with BALB/C mice worked out at 1.15E+04.
Take `CCCCC/C=C\C/C=C\CCCCCCCCN(CCCCCC(=O)OCC(CCCCCCCC)CCCCCCCCCC)CCOC(=O)NCCCN(C)C` (stereo not shown) [Lipid 81, 2-octyldodecyl 2-methyl-11-((9Z,12Z)-octadeca-9,12-dien-1-yl)-7-oxo-8-oxa-2,6,11-triazaheptadecan-17-oate]: in the data set with Hep G2 cells [4], the “In vitro Expression HepG2” value worked out at 6.71E+04. Moreover, in the data set on RAW 264.7 cells [5], the “In vitro Expression RAW” value stood at 1.56E+03. The “In vitro Viability HepG2” value with Hep G2 cells [6] came out at 121%. The “In vitro Viability RAW” value in the data set on RAW 264.7 cells [7] is on record as 107%. Further, the “In vivo Expression (Whole Body)” value with BALB/C mice is recorded as 1.15E+04.
For `CCCCC/C=C\C/C=C\CCCCCCCCN(CCCCCC(=O)OCC/C=C\CCCCC)CCOC(=O)NCc1ccncc1` [Lipid 99, (Z)-non-3-en-1-yl 6-(((9Z,12Z)-octadeca-9,12-dien-1-yl)(2-(((pyridin-4-ylmethyl)carbamoyl)oxy)ethyl)amino)hexanoate] the same measures were 1.13E+04, 1.01E+04, 78%, 137% and 5.53E+07.
For `CCCCCCCOC(=O)CCCCCCCCCN(CCCCCCCCCC(=O)OCCCCCCC)CCOC(=O)NCCN1CCCCC1` [Lipid 118, diheptyl 10,10′-((2-(((2-(piperidin-1-yl)ethyl)carbamoyl)oxy)ethyl)azanediyl)bis(decanoate)] the same measures were 1.43E+03, 1.42E+04, 19%, 8% and 7.90E+06.
For `CCCCCCOC(=O)CCCCCCCCCCN(CCCCCCCCCCC(=O)OCCCCCC)CCOC(=O)NCCN1CCOCC1` [Lipid 139, dihexyl 11,11′-((2-(((2-morpholinoethyl)carbamoyl)oxy)ethyl)azanediyl)diundecanoate] the same measures were 4.85E+01, 1.64E+02, 16%, 8% and 3.48E+06.
For `CCCCCCCCCCCOC(=O)CCCCCN(CCCCCC(=O)OCCCCCCCCCCC)CCOC(=O)NCCN1CCN(C)CC1` [Lipid 156, diundecyl 6,6′-((2-(((2-(4-methylpiperazin-1-yl)ethyl)carbamoyl)oxy)ethyl)azanediyl)dihexanoate], in the data set with Hep G2 cells [4], the “In vitro Expression HepG2” value came to 2.86E+04. Besides, the “In vitro Expression RAW” value with RAW 264.7 cells [5] worked out at 1.67E+03. Moreover, the “In vitro Viability HepG2” value in the data set on Hep G2 cells [6] was 84%. Further, in the data set on RAW 264.7 cells [7], the “In vitro Viability RAW” value stood at 93%. Also, the “In vivo Expression (Whole Body)” value in the data set on BALB/C mice was found to be 4.92E+04.
For `CCCCCCCCCCCOC(=O)CCCCCN(CCCCCCCC(=O)OC(CCCCCCCC)CCCCCCCC)CCOC(=O)NCCN1CCN(C)CC1` [Lipid 160, heptadecan-9-yl 8-((2-(((2-(4-methylpiperazin-1-yl)ethyl)carbamoyl)oxy)ethyl)(6-oxo-6-(undecyloxy)hexyl)amino)octanoate] the same measures were 6.38E+05, 1.94E+04, 94%, 93% and 4.44E+05.
For `CCCCCCCCCC(=O)OCCCCCCCN(CCCCCCCOC(=O)CCCCCCCCC)CCOC(=O)NCc1ncc[nH]1` [Lipid 176] the same measures were 6.28E+03, 4.83E+04, 88%, 93% and 1.31E+07.
For `CCCCC/C=C\CCOC(=O)CCCCCN(CCCCCCCCOC(=O)C(CCCCCC)CCCCCCCC)CCOC(=O)NCCN(C)C` (stereo not shown) [Lipid 184] the same measures were 9.87E+04, 1.93E+03, 91%, 88% and 5.28E+07.
